Laboratory results taken from ChEMBL document CHEMBL1201862, “PubChem BioAssay data set” (2004).
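All cell lines were grown in 96-well plates and treated with compound for 48 hours. At the GI50, growth is halved.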 Active and inactive are the calls of the source. Cut-off read from the data, not from the text of the source: active = GI50 up to about 1.1 µM and inactive = higher.

Assays:
Assay in all cases: NCI tumour cell line growth inhibition, 48 h
786-0 = test system: 786-0
A498 = test system: A498
A549 = test system: A549
ACHN = test system: ACHN
BT-549 = test system: BT-549
CAKI-1 = test system: CAKI-1
CCRF-CEM = test system: CCRF-CEM
COLO 205 = test system: COLO 205
DU-145 = test system: DU-145
EKVX = test system: EKVX
HCC 2998 = test system: HCC 2998
HCT-116 = test system: HCT-116
HCT-15 = test system: HCT-15
HL-60 = test system: HL-60
HOP-62 = test system: HOP-62
HOP-92 = test system: HOP-92
HT-29 = test system: HT-29
Hs-578T = test system: Hs-578T
IGROV-1 = test system: IGROV-1
K562 = test system: K562
KM12 = test system: KM12
LOX IMVI = test system: LOX IMVI
M14 = test system: M14
MCF7 = test system: MCF7
MDA-MB-231 = test system: MDA-MB-231
MDA-MB-435 = test system: MDA-MB-435
MDA-N = test system: MDA-N
MOLT-4 = test system: MOLT-4
Malme-3M = test system: Malme-3M
NCI-H226 = test system: NCI-H226
NCI-H23 = test system: NCI-H23
NCI-H460 = test system: NCI-H460
NCI-H522 = test system: NCI-H522
NCI/ADR-RES = test system: NCI/ADR-RES
OVCAR-3 = test system: OVCAR-3
OVCAR-4 = test system: OVCAR-4
OVCAR-5 = test system: OVCAR-5
OVCAR-8 = test system: OVCAR-8
PC-3 = test system: PC-3
RPMI-8226 = test system: RPMI-8226
RXF 393 = test system: RXF 393
SF-268 = test system: SF-268
SF-295 = test system: SF-295
SF-539 = test system: SF-539
SK-MEL-28 = test system: SK-MEL-28
SK-MEL-2 = test system: SK-MEL-2
SK-MEL-5 = test system: SK-MEL-5
SK-OV-3 = test system: SK-OV-3
SN12C = test system: SN12C
SNB-19 = test system: SNB-19
SNB-75 = test system: SNB-75
SR = test system: SR
SW-620 = test system: SW-620
T47D = test system: T47D
TK-10 = test system: TK-10
U-251 = test system: U-251
UACC-257 = test system: UACC-257
UACC-62 = test system: UACC-62
UO-31 = test system: UO-31

O=C1/C(=N/CCc2cc(Br)c(O)c(Br)c2)C=C(O)c2cccnc21
GI50 (786-0): 2220 nM (inactive)
GI50 (A498): 3080 nM (inactive)
GI50 (A549): 2100 nM (inactive)
GI50 (ACHN): 2680 nM (inactive)
GI50 (BT-549): 1370 nM (inactive)
GI50 (CAKI-1): 5040 nM (inactive)
GI50 (CCRF-CEM): 5240 nM (inactive)
GI50 (COLO 205): 1750 nM (inactive)
GI50 (DU-145): 1450 nM (inactive)
GI50 (EKVX): 8470 nM (inactive)
GI50 (HCC 2998): 6780 nM (inactive)
GI50 (HCT-116): 2460 nM (inactive)
GI50 (HCT-15): 2360 nM
GI50 (HL-60): 4880 nM (inactive)
GI50 (HOP-62): 1110 nM (active)
GI50 (HOP-92): 7940 nM (inactive)
GI50 (HT-29): 2600 nM (inactive)
GI50 (Hs-578T): 1490 nM (inactive)
GI50 (IGROV-1): 2070 nM (inactive)
GI50 (K562): 1560 nM (inactive)
GI50 (KM12): 2940 nM (inactive)
GI50 (LOX IMVI): 634 nM (active)
GI50 (M14): 1310 nM (inactive)
GI50 (MCF7): 1610 nM (inactive)
GI50 (MDA-MB-231): 7350 nM (inactive)
GI50 (MDA-MB-435): 344 nM (active)
GI50 (MDA-N): 400 nM (active)
GI50 (MOLT-4): 6750 nM (inactive)
GI50 (Malme-3M): 1210 nM (inactive)
GI50 (NCI-H226): 1870 nM (inactive)
GI50 (NCI-H23): 502 nM (active)
GI50 (NCI-H460): 1170 nM (inactive)
GI50 (NCI-H522): 1740 nM (inactive)
GI50 (NCI/ADR-RES): 4750 nM (inactive)
GI50 (OVCAR-3): 1590 nM (inactive)
GI50 (OVCAR-4): 2720 nM (inactive)
GI50 (OVCAR-5): 2030 nM (inactive)
GI50 (OVCAR-8): 4380 nM (inactive)
GI50 (PC-3): 3920 nM (inactive)
GI50 (RPMI-8226): 2820 nM (inactive)
GI50 (RXF 393): 2240 nM (inactive)
GI50 (SF-268): 2190 nM (inactive)
GI50 (SF-295): 1200 nM (inactive)
GI50 (SF-539): 918 nM (active)
GI50 (SK-MEL-28): 1780 nM (inactive)
GI50 (SK-MEL-2): 1520 nM (inactive)
GI50 (SK-MEL-5): 1240 nM (inactive)
GI50 (SK-OV-3): 7260 nM (inactive)
GI50 (SN12C): 1350 nM (inactive)
GI50 (SNB-19): 2300 nM (inactive)
GI50 (SNB-75): 1130 nM (inactive)
GI50 (SR): 771 nM (active)
GI50 (SW-620): 2170 nM (inactive)
GI50 (T47D): 7780 nM (inactive)
GI50 (TK-10): 3330 nM (inactive)
GI50 (U-251): 1930 nM (inactive)
GI50 (UACC-257): 1370 nM (inactive)
GI50 (UACC-62): 1510 nM (inactive)
GI50 (UO-31): 3120 nM (inactive)
